Experimental data reported in patent publication US11000033B2, “Ketone or oxime compound, and herbicide” (NISSAN CHEMICAL CORPORATION, priority 2014, dated 2021).

Columns and labels:
Format in all cases: in vivo
Avena fatua [1] = test: Test Example 5: herbicidal effect by foliage application, plastic box (symbol I); conditions: 320 g/ha, 3 weeks after application
How it was run: (§1)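 Emulsion formulation, diluted with water to the intended rate, was applied uniformly to leaves by small sprayer. Recipients were 14-day greenhouse-grown seedlings (25° C. to 30° C.). Assessment followed at 3 weeks.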

Apera spica-venti [2] = test: Test Example 5: herbicidal effect by foliage application, plastic box (symbol L); conditions: 320 g/ha, 3 weeks after application
How it was run: as §1

Abutilon theophrasti = test: Test Example 5: herbicidal effect by foliage application, plastic box (symbol M); conditions: 320 g/ha, 3 weeks after application
How it was run: as §1

Digitaria ciliaris = test: Test Example 5: herbicidal effect by foliage application, plastic box (symbol F); conditions: 320 g/ha, 3 weeks after application
How it was run: as §1

rapeseed [3] = test: Test Example 4: effect on crop by soil treatment (symbol g); conditions: for g (rapeseed) effect on crop grade: application herbicide amount 320 g/ha
How it was run: (§2)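 Plants are raised in a greenhouse (25° C. to 30° C.) from spot-sown seed, which sits under about 1.5 cm of sterilized diluvial soil in a box shared with weed species.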

rice = test: Test Example 4: effect on crop by soil treatment (symbol b); conditions: for b (directly sowed rice plant) effect on crop grade: application herbicide amount 320 g/ha
How it was run: as §2

Veronica persica [4] = test: Test Example 4: herbicidal effect by soil treatment (symbol R); conditions: for R (Veronica persica) herbicidal effect grade: application herbicide amount 320 g/ha
How it was run: (§3)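 Seeds were sown in sterilized diluvial soil, covered with about 1.5 cm of soil, and the soil surface was sprayed with a water-diluted emulsion of the compound at a predetermined rate. Plants grew in a greenhouse at 25° C. to 30° C.; effects were scored visually 3 weeks after application.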

Scirpus juncoides = test: Test Example 1: herbicidal activity, application before weed generation in submerged conditions (symbol B); conditions: application herbicide amount 320 g/ha
How it was run: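 Greenhouse growth at 25–30 °C lasted 3 weeks after treatment, when each weed was graded 0–5 by herbicidal ratio. Treatment was a diluted emulsion applied to the water surface of 4 cm-submerged alluvial soil on the sowing day.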

Monochoria vaginalis = test: Test Example 2: herbicidal activity, application during weed generation in submerged conditions (symbol C); conditions: Table 23; application herbicide amount 320 g/ha; grade 0-5 by criteria of Test Example 1
How it was run: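 Weeds emerging under flooded conditions were treated with compound formulated as an emulsion and diluted with water to the intended herbicide amount, poured onto the surface of 4 cm standing water. Seeds had been co-sown in alluvial soil; plants grew at 25° C. to 30° C. and were assessed after 3 weeks.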

Apera spica-venti [5] = test: Test Example 4: herbicidal effect by soil treatment (symbol L); conditions: for L (Apera spica-venti) herbicidal effect grade: application herbicide amount 320 g/ha
How it was run: as §3

Setaria viridis [6] = test: Test Example 5: herbicidal effect by foliage application, plastic box (symbol G); conditions: 320 g/ha, 3 weeks after application
How it was run: as §1

rapeseed [7] = test: Test Example 5: effect on crop by foliage application, plastic box (symbol g); conditions: 320 g/ha, 3 weeks after application
How it was run: (§4)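 Crop seed is sown alongside grass and broadleaf weed species in spots in sterilized diluvial soil, then covered to a depth of about 1.5 cm. Plants grow in a greenhouse kept at 25° C. to 30° C.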

Setaria viridis [8] = test: Test Example 4: herbicidal effect by soil treatment (symbol G); conditions: for G (Setaria viridis) herbicidal effect grade: application herbicide amount 320 g/ha
How it was run: as §3

Veronica persica [9] = test: Test Example 5: herbicidal effect by foliage application, plastic box (symbol R); conditions: 320 g/ha, 3 weeks after application
How it was run: as §1

Avena fatua [10] = test: Test Example 4: herbicidal effect by soil treatment (symbol I); conditions: for I (Avena fatua) herbicidal effect grade: application herbicide amount 320 g/ha
How it was run: as §3

[11] = test system: Echinochloa crus-galli var. crus-galli; test: Test Example 5: herbicidal effect by foliage application, plastic box (symbol H); conditions: 320 g/ha, 3 weeks after application
How it was run: as §1

soybean = test: Test Example 5: effect on crop by foliage application, plastic box (symbol d); conditions: 320 g/ha, 3 weeks after application
How it was run: as §4

Chenopodium album = test: Test Example 5: herbicidal effect by foliage application, plastic box (symbol O); conditions: 320 g/ha, 3 weeks after application
How it was run: as §1

Row | SMILES | I: Avena fatua, herbicidal effect grade (Avena fatua [1]) | L: Apera spica-venti, herbicidal effect grade (Apera spica-venti [2]) | M: Abutilon theophrasti, herbicidal effect grade (Abutilon theophrasti) | F: Digitaria ciliaris, herbicidal effect grade (Digitaria ciliaris) | g (rapeseed) effect on crop grade (rapeseed [3]) | b (directly sowed rice plant) effect on crop grade (rice) | R (Veronica persica) herbicidal effect grade (Veronica persica [4]) | Herbicidal effect grade, B: Scirpus juncoides (Scirpus juncoides) | Herbicidal effect grade, C: Monochoria vaginalis (Monochoria vaginalis) | L (Apera spica-venti) herbicidal effect grade (Apera spica-venti [5]) | G: Setaria viridis, herbicidal effect grade (Setaria viridis [6]) | g: rapeseed, effect on crop grade (rapeseed [7]) | G (Setaria viridis) herbicidal effect grade (Setaria viridis [8]) | I (Avena fatua) herbicidal effect grade (Avena fatua [10]) | H: Echinochloa crus-galli var. crus-galli, herbicidal effect grade [11] | d: soybean, effect on crop grade (soybean) | O: Chenopodium album, herbicidal effect grade (Chenopodium album) | also measured
1 | CCCCCCCCC(=O)OC1=C(c2c(C)cc(C)cc2C)C(=O)C(CC(C)=NOC)C1 (stereo not shown) [1-033] | 5 (Herbicidal ratio of 90% or more (almost completely withered)) | 5 (Herbicidal ratio of 90% or more (almost completely withered)) | 4 (Herbicidal ratio of 70% or higher and lower than 90%) | 5 (Herbicidal ratio of 90% or more (almost completely withered)) | 5 (Herbicidal ratio of 90% or more (almost completely withered)) | 5 (Herbicidal ratio of 90% or more (almost completely withered)) | 1 (Herbicidal ratio of 5% or higher and lower than 20%) | 4 (Herbicidal ratio of 70% or higher and lower than 90%) | 2 (Herbicidal ratio of 20% or higher and lower than 40%) | 5 (Herbicidal ratio of 90% or more (almost completely withered)) | 5 (Herbicidal ratio of 90% or more (almost completely withered)) | 4 (Herbicidal ratio of 70% or higher and lower than 90%) | 5 (Herbicidal ratio of 90% or more (almost completely withered)) | 4 (Herbicidal ratio of 70% or higher and lower than 90%) | 5 (Herbicidal ratio of 90% or more (almost completely withered)) | 4 (Herbicidal ratio of 70% or higher and lower than 90%) |  | R: Veronica persica, herbicidal effect grade (Veronica persica [9]): 2 (Herbicidal ratio of 20% or higher and lower than 40%)
2 | CC(CC1CC(O)=C(c2c(C)cc(C)cc2C)C1=O)=NOCC[Si](C)(C)C (stereo not shown) [1-055] | 4 (Herbicidal ratio of 70% or higher and lower than 90%) | 5 (Herbicidal ratio of 90% or more (almost completely withered)) | 0 (Herbicidal ratio of 5% or lower (almost no effect)) | 3 (Herbicidal ratio of 40% or higher and lower than 70%) | 0 (Herbicidal ratio of 5% or lower (almost no effect)) | 5 (Herbicidal ratio of 90% or more (almost completely withered)) | 0 (Herbicidal ratio of 5% or lower (almost no effect)) | 3 (Herbicidal ratio of 40% or higher and lower than 70%) | 0 (Herbicidal ratio of 5% or lower (almost no effect)) | 2 (Herbicidal ratio of 20% or higher and lower than 40%) | 3 (Herbicidal ratio of 40% or higher and lower than 70%) | 3 (Herbicidal ratio of 40% or higher and lower than 70%) | 4 (Herbicidal ratio of 70% or higher and lower than 90%) | 0 (Herbicidal ratio of 5% or lower (almost no effect)) | 4 (Herbicidal ratio of 70% or higher and lower than 90%) | 2 (Herbicidal ratio of 20% or higher and lower than 40%) | 1 (Herbicidal ratio of 5% or higher and lower than 20%) | 
3 | CC(CC1CC(O)=C(c2c(C)cc(C)cc2C)C1=O)=NOCC=CCl (stereo not shown) [1-056] | 5 (Herbicidal ratio of 90% or more (almost completely withered)) | 5 (Herbicidal ratio of 90% or more (almost completely withered)) | 4 (Herbicidal ratio of 70% or higher and lower than 90%) | 5 (Herbicidal ratio of 90% or more (almost completely withered)) | 4 (Herbicidal ratio of 70% or higher and lower than 90%) | 5 (Herbicidal ratio of 90% or more (almost completely withered)) | 0 (Herbicidal ratio of 5% or lower (almost no effect)) | 5 (Herbicidal ratio of 90% or more (almost completely withered)) | 4 (Herbicidal ratio of 70% or higher and lower than 90%) | 5 (Herbicidal ratio of 90% or more (almost completely withered)) | 5 (Herbicidal ratio of 90% or more (almost completely withered)) | 4 (Herbicidal ratio of 70% or higher and lower than 90%) | 5 (Herbicidal ratio of 90% or more (almost completely withered)) | 3 (Herbicidal ratio of 40% or higher and lower than 70%) | 5 (Herbicidal ratio of 90% or more (almost completely withered)) | 4 (Herbicidal ratio of 70% or higher and lower than 90%) | 1 (Herbicidal ratio of 5% or higher and lower than 20%) | 
4 | CC(CC1CC(O)=C(c2c(C)cc(C)cc2C)C1=O)=NO (stereo not shown) [1-058] | 5 (Herbicidal ratio of 90% or more (almost completely withered)) | 5 (Herbicidal ratio of 90% or more (almost completely withered)) | 4 (Herbicidal ratio of 70% or higher and lower than 90%) | 5 (Herbicidal ratio of 90% or more (almost completely withered)) | 3 (Herbicidal ratio of 40% or higher and lower than 70%) | 5 (Herbicidal ratio of 90% or more (almost completely withered)) | 0 (Herbicidal ratio of 5% or lower (almost no effect)) | 0 (Herbicidal ratio of 5% or lower (almost no effect)) | 0 (Herbicidal ratio of 5% or lower (almost no effect)) | 4 (Herbicidal ratio of 70% or higher and lower than 90%) | 5 (Herbicidal ratio of 90% or more (almost completely withered)) | 4 (Herbicidal ratio of 70% or higher and lower than 90%) | 5 (Herbicidal ratio of 90% or more (almost completely withered)) | 1 (Herbicidal ratio of 5% or higher and lower than 20%) | 5 (Herbicidal ratio of 90% or more (almost completely withered)) | 3 (Herbicidal ratio of 40% or higher and lower than 70%) | 0 (Herbicidal ratio of 5% or lower (almost no effect)) | 
5 | CON=C(CC1CC(O)=C(c2c(C)cc(C)cc2C)C1=O)C1CCCC1 (stereo not shown) [1-078] |  |  |  |  |  |  |  | 2 (Herbicidal ratio of 20% or higher and lower than 40%) | 0 (Herbicidal ratio of 5% or lower (almost no effect)) |  |  |  |  |  |  |  |  | I: Avena fatua, herbicidal effect (criteria 0-5) (Avena fatua [1]): 1 (Herbicidal ratio of 5% or higher and lower than 20%); L: Apera spica-venti, herbicidal effect (criteria 0-5) (Apera spica-venti [2]): 3 (Herbicidal ratio of 40% or higher and lower than 70%); M: Abutilon theophrasti, herbicidal effect (criteria 0-5) (Abutilon theophrasti): 0 (Herbicidal ratio of 5% or lower (almost no effect)); F: Digitaria ciliaris, herbicidal effect (criteria 0-5) (Digitaria ciliaris): 1 (Herbicidal ratio of 5% or higher and lower than 20%); g: rapeseed, effect grade on crop (rapeseed [3]; 320 g/ha): 1 (Herbicidal ratio of 5% or higher and lower than 20%); b: directly sowed rice plant, effect grade on crop (rice; 320 g/ha): 5 (Herbicidal ratio of 90% or more (almost completely withered)); R: Veronica persica, herbicidal effect grade (Veronica persica [4]; 320 g/ha): 0 (Herbicidal ratio of 5% or lower (almost no effect)); L: Apera spica-venti, herbicidal effect grade (Apera spica-venti [5]; 320 g/ha): 4 (Herbicidal ratio of 70% or higher and lower than 90%); G: Setaria viridis, herbicidal effect (criteria 0-5) (Setaria viridis [6]): 5 (Herbicidal ratio of 90% or more (almost completely withered)); g: rapeseed, effect on crop (criteria 0-5) (rapeseed [7]): 3 (Herbicidal ratio of 40% or higher and lower than 70%); G: Setaria viridis, herbicidal effect grade (Setaria viridis [8]; 320 g/ha): 5 (Herbicidal ratio of 90% or more (almost completely withered)); R: Veronica persica, herbicidal effect (criteria 0-5) (Veronica persica [9]): 0 (Herbicidal ratio of 5% or lower (almost no effect)); I: Avena fatua, herbicidal effect grade (Avena fatua [10]; 320 g/ha): 0 (Herbicidal ratio of 5% or lower (almost no effect)); H: Echinochloa crus-galli var. crus-galli, herbicidal effect (criteria 0-5) [11]: 5 (Herbicidal ratio of 90% or more (almost completely withered)); d: soybean, effect on crop (criteria 0-5) (soybean): 0 (Herbicidal ratio of 5% or lower (almost no effect))
